Assays:
[1] = target: T1, Cloned human M1 receptor (CHRM1) (Homo sapiens, UniProt P11229); assay: CHRM1 Ca++ Flux Assay (HEK293 M1 cells, agonist mode); assay type: cell-based; conditions: for Emax: Percent Activity (PA), read-out: M1 FDSS PA %; for EC50: geometric mean if tested more than once, read-out: M1 FDSS EC50
T1 construct: expressed in transfected cells; host or cells: HEK293
T1 sequence (P11229 1-460): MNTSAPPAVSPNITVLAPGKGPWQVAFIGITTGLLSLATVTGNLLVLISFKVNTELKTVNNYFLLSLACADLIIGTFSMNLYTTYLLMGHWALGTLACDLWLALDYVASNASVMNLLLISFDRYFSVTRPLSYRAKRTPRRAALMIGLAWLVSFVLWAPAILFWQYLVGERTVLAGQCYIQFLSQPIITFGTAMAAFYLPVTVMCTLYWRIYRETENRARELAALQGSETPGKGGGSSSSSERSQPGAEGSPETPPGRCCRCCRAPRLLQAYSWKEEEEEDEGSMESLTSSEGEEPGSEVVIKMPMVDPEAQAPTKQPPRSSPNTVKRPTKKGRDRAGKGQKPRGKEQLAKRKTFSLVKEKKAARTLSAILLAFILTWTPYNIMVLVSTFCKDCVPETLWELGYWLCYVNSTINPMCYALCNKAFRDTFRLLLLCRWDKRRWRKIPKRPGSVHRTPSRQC
Summary of the method: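 HEK293 cells stably expressing human M1 were loaded with Ca++ dye, then given compounds (11-point dose, triplicate) in HBSS −Ca/−Mg, 20 mM HEPES. Ca++ flux was read over 3 min (agonist mode). Four-parameter curves were fitted, with activity as percent of carbachol EC100.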

[2] = target: T2, human cloned CHRM4 receptor (Homo sapiens, UniProt P08173); assay: CHRM4 Ca++ Flux Assay (M4_CHO cells, agonist mode); assay type: cell-based; conditions: for Emax: Percent Activity (PA), read-out: M4 FDSS PA %; for EC50: geometric mean if tested more than once, read-out: M4 FDSS EC50
T2 construct: expressed in transfected cells; host or cells: CHO-K1 (M4_CHO)
T2 sequence (P08173 1-479): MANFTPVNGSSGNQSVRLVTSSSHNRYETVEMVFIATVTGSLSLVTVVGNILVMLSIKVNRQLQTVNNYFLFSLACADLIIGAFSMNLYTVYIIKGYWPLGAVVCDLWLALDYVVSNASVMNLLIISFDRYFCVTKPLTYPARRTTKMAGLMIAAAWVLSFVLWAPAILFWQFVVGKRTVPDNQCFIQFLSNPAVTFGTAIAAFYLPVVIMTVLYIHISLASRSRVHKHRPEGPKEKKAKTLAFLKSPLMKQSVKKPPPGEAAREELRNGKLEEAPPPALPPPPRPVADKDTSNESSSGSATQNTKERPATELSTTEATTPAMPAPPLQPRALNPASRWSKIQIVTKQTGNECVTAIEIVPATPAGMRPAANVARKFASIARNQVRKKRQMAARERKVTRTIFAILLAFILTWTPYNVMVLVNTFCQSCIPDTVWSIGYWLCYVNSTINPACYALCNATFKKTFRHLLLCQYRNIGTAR
Summary of the method: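 CHO-K1 cells stably expressing human M4 were dye-loaded, then held 60 min at RT in Ca/Mg-free HBSS buffer with 20 μM ATP. Ca++ traces were recorded over 3 min after an 11-point compound series in triplicate, agonist mode, with a four-parameter fit. Percent activity is relative to the carbachol EC100; repeat tests are geometric means.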

Row | Emax [1] [%] | EC50 [1] [nM] | Emax [2] [%] | EC50 [2] [nM] | Compound
1 | 7 | 3570 | 58 | 145 | Fc1ccc(OC[C@H]2CCCO2)c(C2CCN([C@@H]3COC4(C3)CN(c3nnco3)C4)CC2)c1 [Example 2M, (S)-7-(4-(5-fluoro-2-(((R)-tetrahydrofuran-2-yl)methoxy)phenyl)piperidin-1-yl)-2-(1,3,4-oxadiazol-2-yl)-5-oxa-2-azaspiro[3.4]octane]
2 | 75 | 2340 | 71 | 58 | Fc1ccc(OC[C@H]2CCOC2)c(C2CCN([C@@H]3COC4(C3)CN(c3nncs3)C4)CC2)c1 [Example 5X, (S)-7-(4-(5-fluoro-2-(((S)-tetrahydrofuran-3-yl)methoxy)phenyl)piperidin-1-yl)-2-(1,3,4-thiadiazol-2-yl)-5-oxa-2-azaspiro[3.4]octane]
3 | 97 | 98 | 77 | 12 | Fc1ccc(OCc2ncccn2)c(C2CCN([C@@H]3COC4(C3)CN(c3nnco3)C4)CC2)c1 [Example 2I, (S)-7-(4-(5-fluoro-2-(pyrimidin-2-ylmethoxy)phenyl)piperidin-1-yl)-2-(1,3,4-oxadiazol-2-yl)-5-oxa-2-azaspiro[3.4]octane]
4 | 47 | 2220 | 81 | 50 | Fc1ccc(OC2CC3(COC3)C2)c(C2CCN([C@@H]3COC4(C3)CN(c3nnco3)C4)CC2)c1 [Example 2L, (S)-7-(4-(2-((2-oxaspiro[3.3]heptan-6-yl)oxy)-5-fluorophenyl)piperidin-1-yl)-2-(1,3,4-oxadiazol-2-yl)-5-oxa-2-azaspiro[3.4]octane]
5 | 76 | 439 | 94 | 28 | c1ccc(C2CCN([C@@H]3COC4(C3)CN(c3nnco3)C4)CC2)c(OC2COC2)c1 [Example 1P, (S)-2-(1,3,4-oxadiazol-2-yl)-7-(4-(2-(oxetan-3-yloxy)phenyl)piperidin-1-yl)-5-oxa-2-azaspiro[3.4]octane]
6 | 73 | 4090 | 79 | 86 | Fc1ccc(OCC2CCOCC2)c(C2CCN([C@@H]3COC4(C3)CN(c3nnco3)C4)CC2)c1 [Example 1J, (S)-7-(4-(5-fluoro-2-((tetrahydro-2H-pyran-4-yl)methoxy)phenyl)piperidin-1-yl)-2-(1,3,4-oxadiazol-2-yl)-5-oxa-2-azaspiro[3.4]octane]
7 | 75 | 1320 | 74 | 99 | COCCOc1ccc(F)cc1C1CCN([C@@H]2COC3(C2)CN(c2nnco2)C3)CC1 [Example 1L, (S)-7-(4-(5-fluoro-2-(2-methoxyethoxy)phenyl)piperidin-1-yl)-2-(1,3,4-oxadiazol-2-yl)-5-oxa-2-azaspiro[3.4]octane]
8 | 71 | 634 | 68 | 79 | COc1cc(F)ccc1C1CCN([C@@H]2COC3(C2)CN(c2nnco2)C3)CC1 [Example 1S, (S)-7-(4-(4-fluoro-2-methoxyphenyl)piperidin-1-yl)-2-(1,3,4-oxadiazol-2-yl)-5-oxa-2-azaspiro[3.4]octane]
9 | 107 | 579 | 86 | 112 | Cc1nnc(-c2ccccc2C2CCN([C@@H]3COC4(C3)CN(c3nnco3)C4)CC2)o1 [Example 1Y, (S)-7-(4-(2-(5-methyl-1,3,4-oxadiazol-2-yl)phenyl)piperidin-1-yl)-2-(1,3,4-oxadiazol-2-yl)-5-oxa-2-azaspiro[3.4]octane]
10 | 91 | 1140 | 71 | 25 | CC1(COc2ccc(F)cc2C2CCN([C@@H]3COC4(C3)CN(c3nncs3)C4)CC2)COC1 [Example 2B, (S)-7-(4-(5-fluoro-2-((3-methyloxetan-3-yl)methoxy)phenyl)piperidin-1-yl)-2-(1,3,4-thiadiazol-2-yl)-5-oxa-2-azaspiro[3.4]octane]
11 | 81 | 678 | 79 | 52 | COc1ccccc1C1CCN([C@@H]2COC3(C2)CN(c2nnco2)C3)CC1 [Example 1Q, (S)-7-(4-(2-methoxyphenyl)piperidin-1-yl)-2-(1,3,4-oxadiazol-2-yl)-5-oxa-2-azaspiro[3.4]octane]
12 | 103 | 553 | 79 | 24 | Fc1ccc(OCC2COC2)c(C2CCN([C@@H]3COC4(C3)CN(c3nncs3)C4)CC2)c1 [Example 2A, (S)-7-(4-(5-fluoro-2-(oxetan-3-ylmethoxy)phenyl)piperidin-1-yl)-2-(1,3,4-thiadiazol-2-yl)-5-oxa-2-azaspiro[3.4]octane]
13 | 101 | 542 | 88 | 6 | Fc1ccc(OCC2COC2)c(C2CCN([C@@H]3COC4(C3)CN(c3nnco3)C4)CC2)c1 [Example 2H, (S)-7-(4-(5-fluoro-2-(oxetan-3-ylmethoxy)phenyl)piperidin-1-yl)-2-(1,3,4-oxadiazol-2-yl)-5-oxa-2-azaspiro[3.4]octane]
14 | 53 | 5410 | 68 | 242 | Fc1ccc(OCC2CC3(COC3)C2)c(C2CCN([C@@H]3COC4(C3)CN(c3nnco3)C4)CC2)c1 [Example 2S, (S)-7-(4-(2-((2-oxaspiro[3.3]heptan-6-yl)methoxy)-5-fluorophenyl)piperidin-1-yl)-2-(1,3,4-oxadiazol-2-yl)-5-oxa-2-azaspiro[3.4]octane]
15 | 82 | 376 | 63 | 133 | CC(C)(O)CCOc1ccc(F)cc1C1CCN([C@@H]2COC3(C2)CN(c2nnco2)C3)CC1 [Example 1N, (S)-4-(2-(1-(2-(1,3,4-oxadiazol-2-yl)-5-oxa-2-azaspiro[3.4]octan-7-yl)piperidin-4-yl)-4-fluorophenoxy)-2-methylbutan-2-ol]
16 | 47 | 1990 | 64 | 109 | CC(C)(O)COc1ccccc1C1CCN([C@@H]2COC3(C2)CN(c2ncns2)C3)CC1 [Example 5Y, (S)-1-(2-(1-(2-(1,2,4-thiadiazol-5-yl)-5-oxa-2-azaspiro[3.4]octan-7-yl)piperidin-4-yl)phenoxy)-2-methylpropan-2-ol]
17 | 81 | 223 | 86 | 12 | OC1(COc2ccc(F)cc2C2CCN([C@@H]3COC4(C3)CN(c3nnco3)C4)CC2)COC1 [Example 2U, (S)-3-((2-(1-(2-(1,3,4-oxadiazol-2-yl)-5-oxa-2-azaspiro[3.4]octan-7-yl)piperidin-4-yl)-4-fluorophenoxy)methyl)oxetan-3-ol]
18 | 112 | 116 | 85 | 1 | Cc1nnc(COc2ccc(F)cc2C2CCN([C@@H]3COC4(C3)CN(c3nnco3)C4)CC2)s1 [Example 2E, (S)-7-(4-(5-fluoro-2-((5-methyl-1,3,4-thiadiazol-2-yl)methoxy)phenyl)piperidin-1-yl)-2-(1,3,4-oxadiazol-2-yl)-5-oxa-2-azaspiro[3.4]octane]
19 | 99 | 1230 | 84 | 112 | c1ccc(C2CCN([C@@H]3COC4(C3)CN(c3nnco3)C4)CC2)c(-c2ncco2)c1 [Example 1X, (S)-2-(1,3,4-oxadiazol-2-yl)-7-(4-(2-(oxazol-2-yl)phenyl)piperidin-1-yl)-5-oxa-2-azaspiro[3.4]octane]
